In patent US9834514B2, “Antibiotic sensitivity-restoring and photosensitive agents” (New Mexico Tech Research Foundation, priority 2015, dated 2017):
In brackets after ≈: the same amount, converted by molar mass. Like-named read-outs stand apart in the source and are kept apart here.

What was measured:
MRSA [1] = assay: Resensitization to antibiotics (log reduction, TABLE 29); assay type: cell-based, S. aureus
HeLa cells = assay: Toxicity (IC50) on HeLa cells; assay type: cell-based, human; settings: Homo sapiens; cancerous cervical epithelium HeLa cells
Description: The toxicities of the compounds of the invention were determined for human cancerous cervical epithelium HeLa and normal lung fibroblast WI38 cells. The toxicities of EPIs INF-55 and INF-55Cl were quantified as controls. […] TABLE 2 compares the toxicity of compounds 7-11 on HeLa cells and normal WI38 cells.

[2] = MIC against MRSA isolates; assay type: cell-based, S. aureus; settings: Staphylococcus aureus
Description: The MICs of S. aureus ATCC 33591, BAA-44, BAA-1707, BAA-1717, BAA-1720, BAA-1747, BAA-1754, BAA-1761, BAA-1763, BAA-1764, and BAA-1766 were measured using a cell concentration of about 5×10^5 colony forming units (CFU)/mL. In a 96-well microtiter plate, two-fold dilutions were made of each drug (starting with 100 μM) in 100 μL of a cell suspension in trypticase soy broth (TSB). The samples were incubated overnight at 37° C. on a rotary shaking incubator set at 100 revolutions per minute (rpm) and were visually inspected for turbidity. A 20% well-volume of 3-(4,5-dimethylthiazol-2-yl)-2,5-diphenyltetrazolium bromide (MTT reagent, 5 mg/mL) was added, and the samples were incubated for about 20 minutes. The MICs were determined as the lowest concentration at which full visual inhibition was observed by the unaided eye.

VRE = assay: MIC against VRE; assay type: cell-based, Enterococcus faecalis; settings: Enterococcus, TABLE 23, read-out: VRE MIC
Description: In a 12×75 mm borosilicate glass culture tube, 1 mL of cell suspension was added. Then, compound 7 was added to the cells, and the samples were mixed using a vortex mixer. […] The samples were incubated overnight at 37° C. on a rotary shaking incubator at 100 rpm.

[3] = system: MRSA isolates (S. aureus ATCC 33591, BAA-44, BAA-1707, BAA-1717, BAA-1720, BAA-1747, BAA-1754, BAA-1761, BAA-1763, BAA-1764, BAA-1766); assay: Combination effects of compounds 7-11 and antibiotics on MRSA isolates (turbidity); assay type: cell-based
Excerpt: Inhibition resulting from co-treatment of a broth suspension with a compound of the invention and an antibiotic was compared to broth suspensions subjected to each individual treatment. A visual observation of inhibition with the unaided eye upon co-treatment of the broth suspensions, based on turbidity, was considered synergistic.
Exceptions to reading complete inhibition of growth included Gram-positive cocci. For Gram-positive cocci, trailing growth was observed. For these species, the MICs were read at the first spot where trailing was observed, and tiny buttons of growth were ignored. […]
Two-fold dilutions of the antibiotics were prepared in a liquid growth medium dispensed in test tubes. […] The antibiotic-containing tubes were inoculated with a standard bacterial suspension of 5×10^5 CFU/mL. Following an overnight incubation (16-20 hrs) at 35±2° C. under ambient air, the tubes were examined for visible bacterial growth based on turbidity. The lowest concentration of antibiotic that prevented growth was determined to be the MIC. An incubation time of 24 hrs was used to determine the MICs of oxacillin and vancomycin.

[4] = system: Klebsiella pneumoniae (CRE, ATCC BAA-1705); assay: Time-dependent colony counts of CRE with compounds and PME; assay type: cell-based; settings: PME 0.2 μg/mL, compound 20 μM; FIGS. 48, 49
Description: The MICs of PME and compounds 8-11 were determined against Klebsiella pneumoniae (CRE, ATCC BAA-1705). […] […] At specific time points, the samples were taken and diluted ten-fold in media. Ten microliters of each dilution was then drip-streaked onto an agar plate and incubated overnight at 37° C. Colony counts were then performed and the CFU/mL were calculated.

MRSA [5] = assay: Resensitization to antibiotics (log reduction, TABLE 29); assay type: cell-based, S. aureus; remark: listed apart in the source
Description: In a 96-well microtiter plate, two-fold dilutions were made of each drug (starting with 100 μM) in 100 μL of a cell suspension in TSB. The resulting samples were incubated overnight at 37° C. on a rotary shaking incubator at 100 rpm. The samples were then visually inspected for turbidity. A 20% well volume of MTT reagent (5 mg/mL) was subsequently added, and the samples were incubated for about 20 minutes.

[6] = MRSA (ATCC BAA-44), TABLE 21, read-out: MRSA MIC
[7] = MRSA isolate ATCC BAA-44, read-out: MIC

Clc1ccc(Oc2c(-c3ccc(Cl)cc3)[nH]c3ccc(Cl)cc23)cc1 [Compound 11]
Log Reduction (MRSA [1]; compound 0.5 μM, Norfloxacin (20 μg/mL)): 8 | Log Reduction (MRSA [1]; compound 0.5 μM, Oxacillin (100 μg/mL)): 5 | IC50 (HeLa cells): 25.9 µM | MIC [2, 6]: 8 µM (≈ 3.11 µg/mL) | MIC ([2]; MRSA isolate ATCC 33591, read-out: MIC): 6.3 to 12.5 µM (≈ 2.45 to 4.86 µg/mL) | MIC [2, 7]: 4 µM (≈ 1.55 µg/mL) | MIC ([2]; MRSA isolate ATCC BAA-1707, read-out: MIC): 12.5 µM (≈ 4.86 µg/mL) | MIC ([2]; MRSA isolate ATCC BAA-1717, read-out: MIC): 3.1 to 6.3 µM (≈ 1.2 to 2.45 µg/mL) | MIC ([2]; MRSA isolate ATCC BAA-1720, read-out: MIC): 3.1 to 6.3 µM (≈ 1.2 to 2.45 µg/mL) | MIC ([2]; MRSA isolate ATCC BAA-1747, read-out: MIC): 6.3 to 12.5 µM (≈ 2.45 to 4.86 µg/mL) | MIC ([2]; MRSA isolate ATCC BAA-1754, read-out: MIC): 50 to 100 µM (≈ 19.4 to 38.9 µg/mL) | MIC ([2]; MRSA isolate ATCC BAA-1761, read-out: MIC): 50 to 100 µM (≈ 19.4 to 38.9 µg/mL) | MIC ([2]; MRSA isolate ATCC BAA-1763, read-out: MIC): 50 µM (≈ 19.4 µg/mL) | MIC ([2]; MRSA isolate ATCC BAA-1764, read-out: MIC): 50 µM (≈ 19.4 µg/mL) | MIC ([2]; MRSA isolate ATCC BAA-1766, read-out: MIC): 50 to 100 µM (≈ 19.4 to 38.9 µg/mL) | MIC (VRE): 20 µM (≈ 7.77 µg/mL) | combination effect with Gentamycin ([3]; MRSA ATCC 33591): No Synergy | combination effect with Norfloxacin ([3]; MRSA ATCC 33591): No Synergy | combination effect with Oxacillin ([3]; MRSA ATCC 33591): No Synergy | combination effect with Tetracycline ([3]; MRSA ATCC 33591): No Synergy | combination effect with Vancomycin ([3]; MRSA ATCC 33591): Susceptible | combination effect with Norfloxacin ([3]; MRSA ATCC BAA-44): No Synergy | combination effect with Oxacillin ([3]; MRSA ATCC BAA-44): Synergy | combination effect with Tetracycline ([3]; MRSA ATCC BAA-44): Susceptible | combination effect with Vancomycin ([3]; MRSA ATCC BAA-44): Susceptible | combination effect with Gentamycin ([3]; MRSA ATCC BAA-1707): Susceptible | combination effect with Norfloxacin ([3]; MRSA ATCC BAA-1707): Susceptible | combination effect with Oxacillin ([3]; MRSA ATCC BAA-1707): Susceptible | combination effect with Tetracycline ([3]; MRSA ATCC BAA-1707): Synergy | combination effect with Vancomycin ([3]; MRSA ATCC BAA-1707): Susceptible | combination effect with Gentamycin ([3]; MRSA ATCC BAA-1717): Susceptible | combination effect with Norfloxacin ([3]; MRSA ATCC BAA-1717): Susceptible | combination effect with Oxacillin ([3]; MRSA ATCC BAA-1717): Synergy | combination effect with Tetracycline ([3]; MRSA ATCC BAA-1717): Susceptible | combination effect with Vancomycin ([3]; MRSA ATCC BAA-1717): Susceptible | combination effect with Gentamycin ([3]; MRSA ATCC BAA-1720): Susceptible | combination effect with Norfloxacin ([3]; MRSA ATCC BAA-1720): No Synergy | combination effect with Oxacillin ([3]; MRSA ATCC BAA-1720): No Synergy | combination effect with Tetracycline ([3]; MRSA ATCC BAA-1720): Susceptible | combination effect with Vancomycin ([3]; MRSA ATCC BAA-1720): Susceptible | combination effect with Gentamycin ([3]; MRSA ATCC BAA-1747): Susceptible | combination effect with Norfloxacin ([3]; MRSA ATCC BAA-1747): Susceptible | combination effect with Oxacillin ([3]; MRSA ATCC BAA-1747): Susceptible | combination effect with Tetracycline ([3]; MRSA ATCC BAA-1747): Susceptible | combination effect with Vancomycin ([3]; MRSA ATCC BAA-1747): Susceptible | combination effect with Gentamycin ([3]; MRSA ATCC BAA-1754): Susceptible | combination effect with Norfloxacin ([3]; MRSA ATCC BAA-1754): Susceptible | combination effect with Oxacillin ([3]; MRSA ATCC BAA-1754): No Synergy | combination effect with Tetracycline ([3]; MRSA ATCC BAA-1754): Susceptible | combination effect with Vancomycin ([3]; MRSA ATCC BAA-1754): Susceptible | combination effect with Gentamycin ([3]; MRSA ATCC BAA-1761): Susceptible | combination effect with Norfloxacin ([3]; MRSA ATCC BAA-1761): No Synergy | combination effect with Oxacillin ([3]; MRSA ATCC BAA-1761): Susceptible | combination effect with Tetracycline ([3]; MRSA ATCC BAA-1761): Susceptible | combination effect with Vancomycin ([3]; MRSA ATCC BAA-1761): Susceptible | combination effect with Gentamycin ([3]; MRSA ATCC BAA-1763): Susceptible | combination effect with Norfloxacin ([3]; MRSA ATCC BAA-1763): No Synergy | combination effect with Oxacillin ([3]; MRSA ATCC BAA-1763): No Synergy | combination effect with Tetracycline ([3]; MRSA ATCC BAA-1763): Susceptible | combination effect with Vancomycin ([3]; MRSA ATCC BAA-1763): Susceptible | combination effect with Gentamycin ([3]; MRSA ATCC BAA-1764): Susceptible | combination effect with Norfloxacin ([3]; MRSA ATCC BAA-1764): Susceptible | combination effect with Oxacillin ([3]; MRSA ATCC BAA-1764): No Synergy | combination effect with Tetracycline ([3]; MRSA ATCC BAA-1764): Susceptible | combination effect with Vancomycin ([3]; MRSA ATCC BAA-1764): Susceptible | combination effect with Gentamycin ([3]; MRSA ATCC BAA-1766): Susceptible | combination effect with Norfloxacin ([3]; MRSA ATCC BAA-1766): Susceptible | combination effect with Oxacillin ([3]; MRSA ATCC BAA-1766): No Synergy | combination effect with Tetracycline ([3]; MRSA ATCC BAA-1766): Susceptible | combination effect with Vancomycin ([3]; MRSA ATCC BAA-1766): Susceptible | CRE colony populations on simultaneous treatment with PME [4]: reduced the CRE colony populations to sterility

Clc1ccc(/C=C/c2[nH]c3ccccc3c2/C=C/c2ccc(Cl)cc2)cc1 [Compound 1]
Log Reduction (MRSA [1]; compound 1 μM, MRSA ATCC BAA-44, Light (2 min)): 8 | Log Reduction (MRSA [1]; compound 10 μM, Dicloxacillin (1 μg/mL)): 8 | Log Reduction (MRSA [1]; compound 10 μM, Doxycycline (0.1 μg/mL)): 4 | Log Reduction (MRSA [1]; compound 10 μM, Vancomycin (0.5 μg/mL)): 9 | IC50 (HeLa cells): 68.9 ± 4.8 µM | MIC [2, 6]: 400 µM (≈ 156 µg/mL) | MIC [2, 7]: 400 µM (≈ 156 µg/mL) | MIC (VRE): > 200 µM | Log Reduction (MRSA [5]; compound 1 μM, MRSA ATCC BAA-1717, Light (2 min)): 6 | Log Reduction (MRSA [5]; compound 10 μM, Norfloxacin (20 μg/mL)): 9 | Log Reduction (MRSA [5]; compound 10 μM, Oxacillin (100 μg/mL)): 7-8 | Log Reduction (MRSA [5]; compound 10 μM, Tetracycline (0.1 μg/mL)): 5-6 | Log Reduction (MRSA [5]; compound 10 μM, Tobramycin (100 μg/mL)): 9
